Measurements from patent US3960877A, “N-monosubstituted-2,3-pyridinedicarboxamides, and related compounds” (priority 1974, dated 1976).

Experiments:
Format in all cases: in vivo
[1] = test system: Chickweed; experiment: Postemergence herbicidal activity, % control of plant growth; conditions: post-emergence, 264 h, 8 lb/acre, about 11 days
Description: (§1) By the term "postemergence" is meant that the compound is applied to the plant sought to be controlled after it has emerged from the soil surface. This term is also used to describe the application of herbicidally active compounds to soil surface in and around growing plants sought to be controlled for purposes of effecting root absorption by the undesirable plant species.
(§2) In the postemergence test the soil and developing plants were sprayed approximately 2 weeks after the seeds were sown. The compound was applied at the rate of 8 pounds per acre from about a 2 percent by weight solution of the test compound in acetone and/or alcohol. The postemergence herbicidal activity was measured in the same way as the preemergence activity; i.e. visual observation approximately 11 days after spraying, and expressed as the percent control of plant growth.
(§3) **Postemergence test: compound applied at rate of 8 lb/acre

[2] = test system: Crabgrass; experiment: as above; conditions: Digitaria sanguinalis, post-emergence, 264 h, 8 lb/acre, about 11 days
Description: as §1, §2, §3

[3] = test system: Cucumber; experiment: as above; conditions: Cucumis sativus, post-emergence, 264 h, 8 lb/acre, about 11 days
Description: as §1, §2, §3

[4] = test system: Pigweed; experiment: as above; conditions: Amaranthus retroflexus, post-emergence, 264 h, 8 lb/acre, about 11 days
Description: as §1, §2, §3

[5] = test system: Cheatgrass; experiment: as above; conditions: Bromus tectorum, post-emergence, 264 h, 8 lb/acre, about 11 days
Description: as §1, §2, §3

[6] = test system: Alfalfa; experiment: as above; conditions: Medicago sativa, post-emergence, 264 h, 8 lb/acre, about 11 days
Description: as §1, §2, §3

[7] = test system: Corn; experiment: as above; conditions: Zea mays, post-emergence, 264 h, 8 lb/acre, about 11 days
Description: as §1, §2, §3

[8] = test system: Yellow Rocket; experiment: as above; conditions: post-emergence, 264 h, 8 lb/acre, about 11 days
Description: as §1, §2, §3

[9] = test system: Snapbeans; experiment: as above; conditions: post-emergence, 264 h, 8 lb/acre, about 11 days
Description: as §1, §2, §3

[10] = test system: Foxtail; experiment: as above; conditions: Setaria, post-emergence, 264 h, 8 lb/acre, about 11 days
Description: as §1, §2, §3

[11] = test system: Barnyard Grass; experiment: as above; conditions: Echinochloa crus-galli, post-emergence, 264 h, 8 lb/acre, about 11 days
Description: as §1, §2, §3

[12] = test system: Lambsquarters; experiment: as above; conditions: Chenopodium album, post-emergence, 264 h, 8 lb/acre, about 11 days
Description: as §1, §2, §3

[13] = test system: Curled Dock; experiment: as above; conditions: post-emergence, 264 h, 8 lb/acre, about 11 days
Description: as §1, §2, §3

[14] = test system: Johnsongrass; experiment: as above; conditions: Sorghum halepense, post-emergence, 264 h, 8 lb/acre, about 11 days
Description: as §1, §2, §3

[15] = test system: Velvetleaf; experiment: as above; conditions: Abutilon theophrasti, post-emergence, 264 h, 8 lb/acre, about 11 days
Description: as §1, §2, §3

[16] = test system: Nutgrass; experiment: as above; conditions: post-emergence, 264 h, 8 lb/acre, about 11 days
Description: as §1, §2, §3

[17] = test system: Chickweed; experiment: Preemergence herbicidal activity, % control of plant growth; conditions: pre-emergence, 504 h, 16 lb/acre, about 3 weeks
Description: (§4) By "preemergence" is meant that the compound is applied to the soil prior to emergence of the weed species sought to be controlled. This term, as used herein, also means the application of the herbicidal compounds falling within the scope of this disclosure to areas wherein useful or desirable plants are either growing or have been sown, but where the undesirable plants sought to be controlled have not as yet emerged.
(§5) In using the compound, seeds of the types of plants set forth in Table II were sown in fresh soil. In the preemergence test the soil was sprayed with a solution of the test compound immediately after the seeds were planted, and before any noticeable growth developed. The solution was about a 2 percent by weight solution of the compound in acetone and/or alcohol. The compound was applied at the rate of 16 pounds per acre of soil surface.
(§6) Approximately 3 weeks after spray application, the herbicidal activity of the compound was determined by visual observation of the treated area in comparison with untreated control areas. These observations are reported below in Table II wherein the average activity rating is reported as the percent control of plant growth.
(§7) *Preemergence test: compound applied at rate of 16 lb/acre

[18] = test system: Crabgrass; experiment: as above; conditions: Digitaria sanguinalis, pre-emergence, 504 h, 16 lb/acre, about 3 weeks
Description: as §4, §5, §6, §7

[19] = test system: Cucumber; experiment: as above; conditions: Cucumis sativus, pre-emergence, 504 h, 16 lb/acre, about 3 weeks
Description: as §4, §5, §6, §7

[20] = test system: Pigweed; experiment: as above; conditions: Amaranthus retroflexus, pre-emergence, 504 h, 16 lb/acre, about 3 weeks
Description: as §4, §5, §6, §7

[21] = test system: Cheatgrass; experiment: as above; conditions: Bromus tectorum, pre-emergence, 504 h, 16 lb/acre, about 3 weeks
Description: as §4, §5, §6, §7

[22] = test system: Alfalfa; experiment: as above; conditions: Medicago sativa, pre-emergence, 504 h, 16 lb/acre, about 3 weeks
Description: as §4, §5, §6, §7

[23] = test system: Corn; experiment: as above; conditions: Zea mays, pre-emergence, 504 h, 16 lb/acre, about 3 weeks
Description: as §4, §5, §6, §7

[24] = test system: Yellow Rocket; experiment: as above; conditions: pre-emergence, 504 h, 16 lb/acre, about 3 weeks
Description: as §4, §5, §6, §7

[25] = test system: Snapbeans; experiment: as above; conditions: pre-emergence, 504 h, 16 lb/acre, about 3 weeks
Description: as §4, §5, §6, §7

[26] = test system: Foxtail; experiment: as above; conditions: Setaria, pre-emergence, 504 h, 16 lb/acre, about 3 weeks
Description: as §4, §5, §6, §7

[27] = test system: Barnyard Grass; experiment: as above; conditions: Echinochloa crus-galli, pre-emergence, 504 h; barnyard grass; 16 lb/acre; about 3 weeks
Description: as §4, §5, §6, §7

[28] = test system: Lambsquarters; experiment: as above; conditions: Chenopodium album, pre-emergence, 504 h, 16 lb/acre, about 3 weeks
Description: as §4, §5, §6, §7

[29] = test system: Curled Dock; experiment: as above; conditions: pre-emergence, 504 h, 16 lb/acre, about 3 weeks
Description: as §4, §5, §6, §7

[30] = test system: Johnsongrass; experiment: as above; conditions: Sorghum halepense, pre-emergence, 504 h, 16 lb/acre, about 3 weeks
Description: as §4, §5, §6, §7

[31] = test system: Velvetleaf; experiment: as above; conditions: Abutilon theophrasti, pre-emergence, 504 h, 16 lb/acre, about 3 weeks
Description: as §4, §5, §6, §7

[32] = test system: Wild Oats; experiment: as above; conditions: Avena fatua, pre-emergence, 504 h, 16 lb/acre, about 3 weeks
Description: as §4, §5, §6, §7

[33] = test system: Nutgrass; experiment: as above; conditions: pre-emergence, 504 h, 16 lb/acre, about 3 weeks
Description: as §4, §5, §6, §7

[34] = test system: Wild Oats; experiment: Postemergence herbicidal activity, % control of plant growth; conditions: Avena fatua, post-emergence, 264 h, 8 lb/acre, about 11 days
Description: as §1, §2, §3

Row | Compound | pest or weed control at 8966.8 g/ha [1] | pest or weed control at 8966.8 g/ha [2] | pest or weed control at 8966.8 g/ha [3] | pest or weed control at 8966.8 g/ha [4] | pest or weed control at 8966.8 g/ha [5] | pest or weed control at 8966.8 g/ha [6] | plant injury at 8966.8 g/ha [7] | pest or weed control at 8966.8 g/ha [8] | pest or weed control at 8966.8 g/ha [9] | pest or weed control at 8966.8 g/ha [10] | pest or weed control at 8966.8 g/ha [11] | pest or weed control at 8966.8 g/ha [12] | pest or weed control at 8966.8 g/ha [13] | pest or weed control at 8966.8 g/ha [14] | pest or weed control at 8966.8 g/ha [15] | pest or weed control at 8966.8 g/ha [16] | pest or weed control at 17933.6 g/ha [17] | pest or weed control at 17933.6 g/ha [18] | pest or weed control at 17933.6 g/ha [19] | pest or weed control at 17933.6 g/ha [20] | also measured
1 | O=c1[nH]c2cccnc2c(=O)n1C1CC1 [3-cyclopropyl pyrido[3,2-d]pyrimidine-2,4(1H,3H)-dione] | 100% | 10% | 20% | 90% | 0% | 0% | 0% | 100% | 0% | 0% | 0% | 100% | 10% | 0% | 0% | 0% | 100% | 100% | 100% | 100% | pest or weed control at 17933.6 g/ha [21]: 100%; pest or weed control at 17933.6 g/ha [22]: 100%; plant injury at 17933.6 g/ha [23]: 10%; pest or weed control at 17933.6 g/ha [24]: 100%; pest or weed control at 17933.6 g/ha [25]: 100%; pest or weed control at 17933.6 g/ha [26]: 10%; pest or weed control at 17933.6 g/ha [27]: 10%; pest or weed control at 17933.6 g/ha [28]: 100%; pest or weed control at 17933.6 g/ha [29]: 100%; pest or weed control at 17933.6 g/ha [30]: 10%; pest or weed control at 17933.6 g/ha [31]: 100%; pest or weed control at 17933.6 g/ha [32]: 80%; pest or weed control at 17933.6 g/ha [33]: 0%
2 | O=c1[nH]c2cccnc2c(=O)n1C1CCCCCCC1 [3-cyclooctyl-pyrido[3,2-d]pyrimidine-2,4(1H,3H)-dione] | 100% | 100% | 100% | 100% | 30% | 60% | 0% | 100% | 90% | 80% | 90% | 100% | 100% | 100% | 100% | 40% | 100% | 100% | 90% | 100% | pest or weed control at 8966.8 g/ha [34]: 40%; pest or weed control at 17933.6 g/ha [21]: 100%; pest or weed control at 17933.6 g/ha [22]: 100%; plant injury at 17933.6 g/ha [23]: 50%; pest or weed control at 17933.6 g/ha [24]: 100%; pest or weed control at 17933.6 g/ha [25]: 100%; pest or weed control at 17933.6 g/ha [26]: 100%; pest or weed control at 17933.6 g/ha [28]: 100%; pest or weed control at 17933.6 g/ha [29]: 100%; pest or weed control at 17933.6 g/ha [30]: 100%; pest or weed control at 17933.6 g/ha [31]: 100%; pest or weed control at 17933.6 g/ha [32]: 100%; pest or weed control at 17933.6 g/ha [33]: 20%
